Read-outs that look alike come from different tables or passages of the source.

For one assay, the system named is dechlorination of 3CB. The note with it: cited from earlier work.
The test system of assay [1] is 3-Chlorobenzoate Dechlorination Activity. Briefly: Induction of 3-chlorobenzoate dechlorination activity by growth with 3-chlorobenzoate, analogues, or chloro- and iodobenzoates (Tables 4, 5). In kind it is cell-based, Desulfomonile tiedjei. The protocol: Table 4. Cultures were grown in the presence of 3-chlorobenzoate or a 3-chlorobenzoate analogue substituted at the 1- or 3- position with the indicated functional groups. After several generations the culture were concentrated, washed and resuspended in anaerobic buffered salts containing 1 mM 3-chlorobenzoate and 10 mM pyruvate (as electron donor). […] After two hours samples were taken for benzoate analysis by HPLC. Values presented are the average of duplicate or triplicate cultures ± sample standard deviation.
Table 5. Chloro- and iodobenzoates were tested as inducers of 3-chlorobenzoate dehalogenation activity as described in the legend to Table 4. All compounds were initially at 500 μM; the 3-halo compounds were amended during growth as they were dehalogenated. Values presented are the average of duplicate or triplicate cultures± sample standard deviation.

Assay [2] relates to Dechlorination of 3-Chlorobenzoate. The assay can be described thus: Dechlorination of 3-chlorobenzoate in the presence of various analogues by induced cells (Table 6). The format is cell-based. The following applies: Desulfomonile tiedjei, read-out: dechlorination of 3-chlorobenzoate in the presence of analogue, % of Control. The protocol: […]. 3-fluorobenzoate induced cultures were washed and resuspended essentially as described in the legend to […] with 100 μM 3-chlorobenzoate and the indicated analogues at 500 μM. Dechlorination rates were normalized to the rate in assays with no analogue to obtain the values presented.

Assay [3] deals with Desulfomonile tiedjei cells. Briefly: Effect of different medium reductants and sterilant on PCE dechlorination by induced cells (Table 2). In kind it is cell-based. The following applies: formaldehyde, final concentration 0.2%. The protocol: (§1) The concentration of nicotinamide and 1,4-naphthoquinone were 500 μgl^-1 and 200 μgl^-1, respectively. Thiamine, hemin and lipoic acid were used at 50 μg/liter. To induce 3-chlorobenzoate dechlorination activity, 3-fluorobenzoate was added to 0.1 mM. The complete medium was inoculated with a 1% transfer from homologous medium (without fluorobenzoate). Cultures were grown at 37° C. in the dark for about 14 days for fresh cells or 28 days for starved stationary phase cells.
(§2) Cultures were harvested by centrifugation and resuspended in 20 to 40% of the initial volume in a cold anaerobic assay buffer normally consisting of 50 mM NaCl, 10 mM sodium pyruvate, 10 mM HEPES (N-2[hydroxyethylP]piperazine-N'-[2-ethanesulfonic acid], hemisodium salt Sigma);, 0.00001% resazurin and reduced with 1 mM cysteine-HCl and 1 mM titanium (III) citrate. Resuspended cells were used to completely fill N2 sparged 10 ml serum bottles after which chlorinated ethylenes were added from a 0.5 or 1 mg/ml stock in methanol for PCE and TCE respectively. The vials were immediately sealed with Teflon lined rubber septa and aluminum crimp seals, leaving no headspace. The assays were commenced by transferring the serum bottles to a 37° C. water bath. The assays were terminated at the indicated times by transferring the serum bottles to an ice water bath, where they were stored until analyzed.
(§3) Chlorinated ethylenes were monitored with a Tekmar purge and trap unit (model 4000) connected to a Hewlett-Packard GC (Sunnyville, Calif.) equipped with an HP-5 cappillary column (30 m×0.53 mm×2.6 μm film thickness) and flame ionization detector. Samples (5 ml) were purged onto Tenax TA (Supelco, Bellefonte, Pa.) adsorbent with helium (30 ml/min for 16 min.), desorbed (180° C. for 4 min.), and separated using helium as a carrier at 6 ml/min. The temperature program was 30° C. for 8 min, increasing to 200° C. at 4° C./min and followed by an isothermal period of 5 min. The injection and detector temperatures were 220° C. and 300° C., respectively. PCE and its dechlorinated products were identified by comparison with authentic standards.
Data are the average of duplicate vials and […]

The test system of assay [4] is Desulfomonile tiedjei cells. The assay can be described thus: PCE and TCE dechlorination by resuspended cells induced with 3-fluorobenzoate versus non-induced cells (Table 1, FIG. 1). In kind it is cell-based. The note with it: for Mole % recovered, TCE / Mole % recovered, cis-DCE / Total Cl Removed: 2 μg/ml substrate, 37° C., 2 hr; for Mole % recovered, TCE / Mole % recovered, cis-DCE: average of duplicate vials; for Total Cl Removed: calculated from input concentration and Mole % recovered. The protocol:
as §1, with “Cultures were grown using strict anaerobic technique in a synthetic minimal medium amended with vitamins (DeWeerd, et al, Arch. of Microbiol. 154, 23-30 (1990)), pyruvate at 20 mM, and reduced with 1 mM cysteine and 0.1 mM Na2 S2 O4. The concentration” for “The concentration”
as §2, with “analyzed. Protein concentrations were determined by a modification of the Lowry method (Hanson, R. S. and J. A. Phillips, In P. Gerhardt (ed.) Manual of methods for general microbiology. American Society for Microbiology, Washington, D. C. p. 328-364 (1981)).” for “analyzed.”
as §3
To further examine the transformation of both PCE and TCE and to determine if dechlorination of TCE also requires induction, a similar experiment was conducted to measure the initial transformation rates of PCE and TCE (Table 1.). […] The extent of transformation of PCE to TCE ([…] in 2H) was considerably faster than the rate of transformation of TCE to DCE ([…] in 2h), as expected from the redox potentials of these reactions (Vogel, T. M., et al., Environ. Sci. Technol. 21:722-736 (1987)) and results from mixed culture systems (Bouwer, E. J., and P. L. McCarty, Appl. Environ. Microbiol. 45:1286-1294 (1983)). The rate of transformation of PCE and TCE were much greater for the induced cultures than for the non-induced cultures.
^a suspensions were amended with PCE or TCE to a final concentration
of 2 μg/ml and incubated at 37° C. for 2 hr. Suspensions of
induced and uninduced cells contained 149 and 153 μg protein per ml
^b Data are presented as the average of duplicate vials with the
sample standard deviation in parenthesis.
^c Calculated from the input concentration of chlorinated ethylenes
and the Mole % of recovered material.

Setting [5] is: Table 4, inducers at 500 μM except 3-formylbenzoate 100 μM and 3-chlorobenzoate (amended at intervals), assay 1 mM 3-chlorobenzoate, two hours.
Where [6] appears, read: 100 μM 3-chlorobenzoate, analogue 500 μM, normalized to rate with no analogue.
[7] abbreviates: Table 5, inducers initially 500 μM, 3-halo compounds amended during growth.
Where [8] appears, read: growing cells and resuspended cells.

On to `O=S(=O)(O)O` [Sulfate], for which the “effect on dechlorination of 3CB” value with dechlorination of 3CB (cells growing on a different medium or resuspended cells) is reported as “not by cells growing on a different medium or by resuspended cells”; in the assay with dechlorination of 3CB (cells growing on one medium), “inhibited dechlorination of 3CB”.

`Nc1cccc(C(=O)O)c1` [--COOH --NH2]: in assay [1] (setting [5]), the “Induction Activity (3-chlorobenzoate dechlorination activity)” value (from here on “Induction Activity”) was 4 ± 1 nMol/hr/mg protein. For the same compound, in assay [2] (setting [6]), the activity at 500 µM turned out to be 78%.

Take `C=O` [formaldehyde]: in assay [3], the “effect on PCE dechlorination” value is reported as “almost totally blocked dechlorination”.

Take `O=C(O)c1cccc(O)c1` [--COOH --OH]: in assay [1] (setting [5]), the “Induction Activity” value amounted to 3 ± 4 nMol/hr/mg protein. For the same compound, the activity at 500 µM in assay [2] (setting [6]) was determined as 91%.

With `O=C(O)c1ccc(I)cc1` [4-iodobenzoate], in assay [1] (setting [7]), the “Induction Activity” value was determined as 7 ± 10 nMol/hr/mg protein.

Turning to `O=C(O)c1ccccc1` [--COOH --H, benzoate], in assay [2], the activity at 500 µM was found to be 106%.

For the compound `O=C(O)c1ccccc1Cl` [2-chloro-], the “Induction Activity” value in assay [1] (setting [7]) came out at 0 ± 0 nMol/hr/mg protein.

Take `O=Cc1cccc(C(=O)O)c1` [3-formylbenzoate]: the “Induction Activity” value in assay [1] (setting [5]) worked out at 8 ± 1 nMol/hr/mg protein.

`O=S(O)(O)=S` [Thiosulfate]: the “effect on dechlorination of 3CB” value in the assay with dechlorination of 3CB (setting [8]) is recorded as “inhibit dechlorination of 3CB”.

Take `O=C(O)c1ccccc1I` [2-iodobenzoate]: in assay [1] (setting [7]), the “Induction Activity” value is recorded as 13 ± 9 nMol/hr/mg protein.

In the case of `O=S(O)O` [sulfite], in the assay with dechlorination of 3CB (setting [8]), the “effect on dechlorination of 3CB” value is “inhibit dechlorination of 3CB”.

`O=C(O)c1cccc(F)c1` [3-fluorobenzoate]: in assay [1] (setting [5]), the “Induction Activity” value was 570 ± 37 nMol/hr/mg protein. The activity at 500 µM in assay [2] (setting [6]) was found to be 114%.

As to `O=C(O)c1cccc(I)c1` [3-iodo-, m-iodobenzoate], the “Induction Activity” value in assay [1] (setting [7]) came to 582 ± 59 nMol/hr/mg protein.

For `OCc1cccc(Cl)c1` [--CH2 OH --Cl, 3-chlorobenzyl alcohol], in assay [1] (setting [5]), the “Induction Activity” value is 86 ± 5 nMol/hr/mg protein. Besides, the activity at 500 µM in assay [2] (setting [6]) was 108%.

As for `ClC=C(Cl)Cl` [TCE, trichloroethylene], the “product formation from PCE or TCE” value in assay [4] (Only cultures pre-induced with 3-fluorobenzoate) was “measurable product formation”. Moreover, in assay [4] (induced (+)), the “Mole % recovered, TCE” value was determined as 89.2 Mole %; the “Mole % recovered, cis-DCE” value is listed as 10.8 Mole %; the “Total Cl Removed” value was 11.0 μmol/g prot. in 2 h. Besides, in assay [4] (non-induced (-)), the “Mole % recovered, TCE” value was 100.0 Mole %; the “Mole % recovered, cis-DCE” value was found to be 0.0 Mole %; the “Total Cl Removed” value is given as 0.0 μmol/g prot. in 2 h. In assay [4] (pre-induced with 3-fluorobenzoate), the “rate of transformation of TCE to DCE” value is 11 mol g protein ^-1 in 2h.

On to `Cc1cccc(C(=O)O)c1` [3-methyl-benzoate], for which the “Induction Activity” value in assay [1] (setting [5]) is reported as 409 ± 6 nMol/hr/mg protein. For the same compound, the activity at 500 µM in assay [2] (setting [6]) came to 119%.

In the case of `O=C(O)c1cccc(C(F)(F)F)c1` [--COOH --CF3, m-trifluoromethyl benzoate], in assay [1] (setting [5]), the “Induction Activity” value is reported as 383 ± 6 nMol/hr/mg protein. Also, the activity at 500 µM in assay [2] (setting [6]) is 94%.

For the compound `N#Cc1cccc(C(=O)O)c1` [--COOH --CN], the “Induction Activity” value in assay [1] (setting [5]) stood at 7 ± 1 nMol/hr/mg protein. In addition, the activity at 500 µM in assay [2] was found to be 76%.

The record behind these values is US5200343A, “Method for microbial dehalogenation of haloaliphatic compounds using a sulfate reducing bacteria, desulfomonile tiedjei” (Board of Trustees operating Michigan State University, priority 1991, dated 1993).
